According to US20030083483A1, “Molecular interaction sites of vimentin RNA and methods of modulating the same” (priority 1999, published 2003):
Entries after “also recorded” stand apart in the source; their conditions may differ.

How the values were obtained:
[1] = test system: protein synthesis (luciferase reporter); test: transcription/translation assay based on expression of a luciferase plasmid; type: biochemical; conditions: unit printed only in the Paromomycin cell and b169
Experimental: The compounds are screened for binding affinity using MASS or conventional high-throughput functional screens. The best scoring compounds from docking a 256-member library against the 16S A-site ribosomal RNA structure are shown in the table 5 below. The MASS assay was performed with the 27-mer model RNA sequence of the 16S A-site whose NMR structure has been determined. The transcription/translation assay was based on expression of a luciferase plasmid.

[2] = test system: 27-mer RNA corresponding to the 16S rRNA A site containing 3 dA residues; test: MS-MS CID/CAD protection assay on chimeric 27-mer RNA/DNA; type: binding, prokaryotic; conditions: same activation energy as free RNA
From the text: In order to study the binding of paromomycin to the RNA of Example 20, the chimeric RNA/DNA molecule of Example 20 was synthesized using standard automated nucleic acid synthesis protocols on an automated synthesizer. A sample of this nucleic acid was then subjected to ESI followed by CID in a mass spectrometer to afford the fragmentation pattern indicating a lack of structure at the sites of dA incorporation, as described in Example 20. This indicated the accessibility of these dA sites in the structure of the chimeric nucleic acid.
Next, another sample of the chimeric nucleic acid was treated with a solution of paromomycin and the resulting mixture analyzed by ESI followed by CID using a mass spectrometer. […] This was also indicative of binding of the paromomycin to the chimeric nucleic acid, because of the increased mass of the observed ion complex. Further, there was also observed, a shift in the distribution of the multiply charged ion complexes which reflected a change in the conformation of the nucleic acid in the paromomycin-nucleic acid complex into a more compact structure. […]
The mass spectrum obtained from a 5 μM solution of C mixed with 125 nM paromomycin contains [M-5H]^5− ions from free C at m/z 1783.6 and the [M-5H]^5− ions of the paromomycin-C complex at m/z 1907.3. […] Signals from the [M-4H]^4− ions of C and the complex are detected at m/z 2229.8 and 2384.4, respectively. […]

16S A-site RNA = conditions: previously reported / solution value for 16S A site; read-out: literature Kd; cited from earlier work

SMILES: NC[C@@H]1O[C@H](O[C@H]2[C@@H](O)[C@H](O[C@@H]3[C@@H](O)[C@H](N)C[C@H](N)[C@H]3O[C@H]3O[C@H](CO)[C@@H](O)[C@H](O)[C@H]3N)O[C@@H]2CO)[C@H](N)[C@@H](O)[C@@H]1O [Paromomycin]
- Activity: Inhibition of protein synthesis in transcription/translation assay for luciferase reporter [1]: 0.3 µM
- fragmentation at the dA sites of the ligand-RNA complex on CID/CAD [2]: no fragmentation at the dA sites; also recorded: No cleavage was found to occur; also recorded: No significant fragment ions are observed; also recorded: no fragment ions are detected
- Kd (16S A-site RNA): 200 nM
